Reference: PMC11762957, “Rescue of Mutant CFTR Channel Activity by Investigational Co-Potentiator Therapy” (Biomedicines, 2025)

Legend:
p.Arg334Trp-CFTR = molecular target: T1, p.Arg334Trp-CFTR (Homo sapiens, UniProt P13569, R334W); test: Micro-Ussing chamber measurements, polarized CFBE41o- monolayers expressing p.Arg334Trp-CFTR; type: cell-based; conditions: after Fsk 0.128 μM
T1 construct: expressed in transfected cells
Experimental: CFBE41o^− cells expressing p.Arg334Trp-CFTR were seeded onto collagen IV-coated Snap-well filter inserts (#734-1646, Corning, New York, NJ, USA) to establish polarized monolayers. When the transepithelial electrical resistance of cells was ≥1000 Ω·cm^2, micro-Ussing chambers were mounted to measure transepithelial voltage (Vte) and transepithelial resistance (Rte), as noted before. Briefly, after the equilibration period, baseline values were recorded and compounds were added sequentially: Fsk (0.128 μM), test compound(s), and Inh-172 (30 μM). Recorded Vte and Rte were used to calculate the equivalent short-circuit current (Isceq) using Ohm’s law: Isc = Vte/Rte.
Next, we validated the data obtained by the HS-YFP assay by measuring short-circuit currents in the polarized monolayers of CFBE41o^− cells expressing p.Arg334Trp-CFTR to assess the alterations in the CFTR-mediated Cl^− current. Upon the activation of the cAMP-dependent CFTR-mediated Cl^− transport by Fsk, there was a small lumen-negative response, indicating the residual function of p.Arg334Trp-CFTR (Figure 3A–F).

p.Ser549Arg-CFTR = molecular target: T2, p.Ser549Arg-CFTR (Homo sapiens, UniProt P13569, S549R); test: HS-YFP assay, CFBE41o- cells transiently transfected with p.Ser549Arg-CFTR; type: cell-based; conditions: c.1645A>C or c.1647T>G, Fsk 5 μM
T2 construct: expressed in transfected cells; host or cells: CFBE41o- cells stably expressing HS-YFP, transient transfection of pcDNA5-CFTR
Experimental: Site-directed mutagenesis was performed using KOD HOT start DNA polymerase (#71086-3, Sigma-Aldrich, St. Louis, MO, USA), according to manufacturer’s instructions, to insert variants under study (c.613C>T or p.Pro205Ser; c.1645A>C or p.Ser549Arg; c.1647T>G or p.Ser549Arg; c.1652G>A or p.Gly551Asp; c.2834C>T or p.Ser945Leu; and c.4046G>A or p.Gly1349Asp) into CFTR cDNA cloned in the pcDNA5 expression vector. After confirmation by Sanger sequencing, CFBE41o^− cells expressing HS-YFP seeded onto 96-well plates were transfected with 0.1 µg per well of the indicated plasmid. Lipofectamine 3000 (#L3000015, ThermoFischer Scientific, Waltham, MA, USA) was used as the transfection agent diluted in Opti-MEM reduced serum medium (#31985070, ThermoFischer Scientific, Waltham, MA, USA) according to manufacturer’s instructions.
CFTR activity was determined by the HS-YFP microfluorimetric assay (described in detail in previous studies) using CFBE41o^− cells expressing HS-YFP together with stably expressed p.Arg334Trp-CFTR or transiently transfected with CFTR cDNA (variants p.Pro205Ser, p.Ser549Arg, p.Gly551Asp, p.Ser945Leu, and p.Gly1349Asp) cloned into pcDNA5. […] Thereafter, cells were transferred to a microplate reader (Tecan Infinite 200 Pro) equipped with high-quality excitation (485 ± 20 nm) and emission (535 ± 25 nm) filters for YFP. Each reading consisted of a continuous 14 s fluorescence recording with 2 s before and 12 s after injection of 165 μL of an iodide-containing solution (PBS with Cl^− replaced by I^−; final I^− concentration: 100 mM). Data were normalized to the initial background-subtracted fluorescence. […]
As CFTR variants with similar defect(s) may respond differently to the same treatment(s), we assessed whether LSO-24 or its derivative LSO-150, alone or in combination(s), could rescue CFTR activity for other variants with gating/conductance defects. […] After 24 h, the cells were acutely stimulated with Fsk plus test compound(s), and the cell fluorescence was recorded before and after the addition of an I^−-containing solution. […]

T2 sequence (P13569 whole entry S549R): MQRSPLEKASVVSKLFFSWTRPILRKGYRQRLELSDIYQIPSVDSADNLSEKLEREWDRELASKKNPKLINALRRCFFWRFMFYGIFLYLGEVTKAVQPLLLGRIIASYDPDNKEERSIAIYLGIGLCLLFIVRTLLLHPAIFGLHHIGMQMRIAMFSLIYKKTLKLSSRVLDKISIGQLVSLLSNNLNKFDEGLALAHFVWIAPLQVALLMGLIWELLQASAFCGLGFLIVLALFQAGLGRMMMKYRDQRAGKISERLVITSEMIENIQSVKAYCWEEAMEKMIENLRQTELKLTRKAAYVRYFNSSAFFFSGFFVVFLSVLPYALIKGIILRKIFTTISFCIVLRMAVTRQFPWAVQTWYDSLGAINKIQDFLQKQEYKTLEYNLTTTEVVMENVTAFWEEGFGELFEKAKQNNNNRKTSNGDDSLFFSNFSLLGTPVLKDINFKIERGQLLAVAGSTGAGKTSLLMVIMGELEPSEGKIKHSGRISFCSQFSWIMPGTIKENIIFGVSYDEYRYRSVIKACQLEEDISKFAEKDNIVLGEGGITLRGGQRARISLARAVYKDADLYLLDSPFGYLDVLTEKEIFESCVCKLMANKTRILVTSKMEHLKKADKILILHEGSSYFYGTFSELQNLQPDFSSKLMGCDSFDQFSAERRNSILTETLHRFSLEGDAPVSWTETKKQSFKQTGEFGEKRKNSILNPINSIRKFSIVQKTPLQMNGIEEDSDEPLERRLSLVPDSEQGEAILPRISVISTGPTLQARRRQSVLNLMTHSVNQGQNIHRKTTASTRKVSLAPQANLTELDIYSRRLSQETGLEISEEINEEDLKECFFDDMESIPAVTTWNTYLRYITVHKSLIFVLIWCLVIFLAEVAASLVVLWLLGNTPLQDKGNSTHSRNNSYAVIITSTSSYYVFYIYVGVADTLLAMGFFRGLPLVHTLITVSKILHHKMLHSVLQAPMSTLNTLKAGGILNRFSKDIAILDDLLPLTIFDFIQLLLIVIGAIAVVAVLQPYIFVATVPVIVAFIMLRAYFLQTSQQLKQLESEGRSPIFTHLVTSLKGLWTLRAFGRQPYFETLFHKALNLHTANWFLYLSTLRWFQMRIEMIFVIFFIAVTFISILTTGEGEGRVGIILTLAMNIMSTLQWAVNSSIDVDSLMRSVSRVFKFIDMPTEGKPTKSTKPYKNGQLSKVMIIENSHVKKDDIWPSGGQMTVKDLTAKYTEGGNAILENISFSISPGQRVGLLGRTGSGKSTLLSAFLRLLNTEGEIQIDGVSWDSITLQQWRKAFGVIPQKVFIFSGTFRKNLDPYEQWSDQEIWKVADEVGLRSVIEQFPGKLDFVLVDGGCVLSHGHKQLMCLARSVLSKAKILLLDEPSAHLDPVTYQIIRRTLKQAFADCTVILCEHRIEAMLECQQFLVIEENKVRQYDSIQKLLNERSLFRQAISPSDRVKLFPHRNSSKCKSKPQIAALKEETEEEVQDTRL
T1 sequence (P13569 whole entry R334W): as the sequence (P13569 whole entry S549R) above, with R334W, R549S counted along it

Isceq, co-administration with VX-770 (p.Arg334Trp-CFTR; VX-770 3 μM + LSO-150 3 μM or LSO-153 5 μM, vs single potentiator): further response | Isceq (equivalent short-circuit current), single potentiator (p.Arg334Trp-CFTR; acute, LSO-150 3 μM, LSO-153 5 μM, VX-770 3 μM, vs DMSO): increase in Isceq | Net effect with co-administration of ABBV-3067 (p.Ser549Arg-CFTR; + ABBV-3067 10 μM): increased | Net effect with co-administration of VX-770 (p.Ser549Arg-CFTR; + VX-770 1 μM): increased | CFTR activity (fluorescence quenching rate), single compound (p.Ser549Arg-CFTR; LSO-24 5 μM, LSO-150 3 μM): increased CFTR activity
Structure (SMILES): CCOC(=O)c1ccc(-n2cc(C(O)c3ccc(Br)cc3)nn2)cc1 (centres unmarked) [LSO-150]
